Results reported in PubChem BioAssay AID248 (DTP/NCI, 2004).
Toxic doses and inconclusive results are not listed. Rule as the data show it: active = T/C of 150% or more; inactive = T/C below 125%.

System: L1210 leukemia ip in BDF1 mice, survival T/C
Experiment: NCI In Vivo Anticancer Drug Screen. Data for tumor model L1210 Leukemia (intraperitoneal) in B6D2F1 (BDF1) mice
Settings: endpoint: mean survival time, higher = longer survival
Method in brief: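 Antitumor effect is assessed in tumor-bearing animals. Survival in the compound arm is compared with a vehicle-dosed control arm and expressed as their quotient.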

[1] = dose: 100.0 mg/kg/injection, schedule: Q04DX002 (ip), vehicle: Klucel (hydroxypropylcellulose) (HPC)
[2] = dose: 200.0 mg/kg/injection, schedule: Q04DX002 (ip), vehicle: Klucel (hydroxypropylcellulose) (HPC)
[3] = dose: 400.0 mg/kg/injection, schedule: Q04DX002 (ip), vehicle: Klucel (hydroxypropylcellulose) (HPC)
[4] = dose: 100.0 mg/kg/injection, schedule: Q04DX003 (ip), vehicle: Klucel (hydroxypropylcellulose) (HPC)
[5] = dose: 200.0 mg/kg/injection, schedule: Q04DX003 (ip), vehicle: Klucel (hydroxypropylcellulose) (HPC)
[6] = dose: 400.0 mg/kg/injection, schedule: Q04DX003 (ip), vehicle: Klucel (hydroxypropylcellulose) (HPC)
[7] = dose: 100.0 mg/kg/injection, schedule: Q04DX003 (ip), vehicle: saline
[8] = dose: 200.0 mg/kg/injection, schedule: Q04DX003 (ip), vehicle: saline
[9] = dose: 50.0 mg/kg/injection, schedule: Q01DX009 (ip), vehicle: Klucel (hydroxypropylcellulose) (HPC)
[10] = dose: 100.0 mg/kg/injection, schedule: Q01DX009 (ip), vehicle: Klucel (hydroxypropylcellulose) (HPC)
[11] = dose: 100.0 mg/kg/injection, schedule: Q01DX001 (ip), vehicle: saline
[12] = dose: 200.0 mg/kg/injection, schedule: Q01DX001 (ip), vehicle: saline
[13] = dose: 100.0 mg/kg/injection, schedule: Q01DX009 (ip), vehicle: saline with Tween-80
[14] = dose: 100.0 mg/kg/injection, schedule: Q04DX003 (ip), vehicle: saline with Tween-80
[15] = dose: 200.0 mg/kg/injection, schedule: Q01DX009 (ip), vehicle: saline with Tween-80
[16] = dose: 200.0 mg/kg/injection, schedule: Q04DX003 (ip), vehicle: saline with Tween-80
[17] = dose: 400.0 mg/kg/injection, schedule: Q04DX003 (ip), vehicle: saline with Tween-80
[18] = dose: 25.0 mg/kg/injection, schedule: Q01DX009 (ip), vehicle: Klucel (hydroxypropylcellulose) (HPC)

Measured: T/C

CCCNP(=O)(NCCC)OC1CC(C)(C)N(O)C(C)(C)C1
inactive: dose: 100.0 mg/kg/injection, schedule: Q04DX002 (ip), vehicle: water 90 % of control | dose: 200.0 mg/kg/injection, schedule: Q04DX002 (ip), vehicle: water 87 % of control | dose: 400.0 mg/kg/injection, schedule: Q04DX002 (ip), vehicle: water 97 % of control

O=C(NO)c1ccccc1.O=C(NO)c1ccccc1.O=C(NO)c1ccccc1.[Fe]
inactive: dose: 100.0 mg/kg/injection, schedule: Q04DX003 (ip), vehicle: DMSO 93 % of control

c1ccc2c(c1)ccc1c[s+]ccc12
inactive: dose: 100.0 mg/kg/injection, schedule: Q04DX003 (ip), vehicle: acetone 103 % of control | dose: 200.0 mg/kg/injection, schedule: Q04DX003 (ip), vehicle: acetone 103 % of control

COc1ccc(C(=O)c2ccccc2)cc1
inactive: [1] 115 % of control | [2] 86 % of control | [3] 86 % of control

COc1cccc(C=NC2CC(C)CCC2C)c1OC (stereo not drawn)
inactive: dose: 50.0 mg/kg/injection, schedule: Q04DX002 (ip), vehicle: saline with Tween-80 90 % of control | dose: 100.0 mg/kg/injection, schedule: Q04DX002 (ip), vehicle: saline with Tween-80 93 % of control | dose: 200.0 mg/kg/injection, schedule: Q04DX002 (ip), vehicle: saline with Tween-80 87 % of control | dose: 400.0 mg/kg/injection, schedule: Q04DX002 (ip), vehicle: saline with Tween-80 90 % of control

ClC(c1ccccc1)c1ccc(Br)cc1 (stereo not drawn)
inactive: [4] 108 % of control | [5] 101 % of control | [6] 90 % of control

CC1=C(CC/C(C)=C/CCC(=O)O)C(C)(C)CCC1
inactive: dose: 50.0 mg/kg/injection, schedule: Q01DX009 (ip), vehicle: saline 100 % of control | dose: 100.0 mg/kg/injection, schedule: Q01DX009 (ip), vehicle: saline 100 % of control | [7] 116 % of control | dose: 200.0 mg/kg/injection, schedule: Q01DX009 (ip), vehicle: saline 98 % of control | [8] 100 % of control | dose: 400.0 mg/kg/injection, schedule: Q04DX003 (ip), vehicle: saline 111 % of control

c1ccc(Cc2nnc(Cc3ccccc3)nn2)cc1
inactive: [1] 91 % of control | [2] 102 % of control | [3] 105 % of control

Nc1cc(N)cc(Cc2ccccc2)c1
inactive: [9] 100 % of control | [10] 95 % of control | [4] 100 % of control | dose: 200.0 mg/kg/injection, schedule: Q01DX009 (ip), vehicle: Klucel (hydroxypropylcellulose) (HPC) 103 % of control | [5] 102 % of control | dose: 400.0 mg/kg/injection, schedule: Q01DX009 (ip), vehicle: Klucel (hydroxypropylcellulose) (HPC) 92 % of control | [6] 98 % of control

Cc1c(/C=N/N=c2/[nH][nH]/c(=N/N=C/c3c(C)n(C)n(-c4ccccc4)c3=O)c3ccccc23)c(=O)n(-c2ccccc2)n1C
inactive: dose: 50.0 mg/kg/injection, schedule: Q01DX001 (ip), vehicle: saline 93 % of control | [11] 106 % of control | [12] 114 % of control

Nc1cc2ccccc2c2c1ccc1ccccc12
inactive: dose: 87.5 mg/kg/injection, schedule: Q04DX003 (ip), vehicle: Klucel (hydroxypropylcellulose) (HPC) 91 % of control | [4] 97 % of control | dose: 175.0 mg/kg/injection, schedule: Q04DX003 (ip), vehicle: Klucel (hydroxypropylcellulose) (HPC) 93 % of control | [5] 94 % of control | dose: 350.0 mg/kg/injection, schedule: Q04DX003 (ip), vehicle: Klucel (hydroxypropylcellulose) (HPC) 102 % of control

CO[Si](C)(C)C
inactive: [11] 98 % of control | [12] 98 % of control | dose: 400.0 mg/kg/injection, schedule: Q01DX001 (ip), vehicle: saline 100 % of control

CSCCC(C#N)c1ccccc1 (stereo not drawn)
inactive: dose: 50.0 mg/kg/injection, schedule: Q01DX009 (ip), vehicle: saline with Tween-80 93 % of control | [13] 104 % of control | [14] 103 % of control | [7] 103 % of control | [15] 110 % of control | [16] 97 % of control | [8] 97 % of control

CCOC(=O)CCN(CC(=O)OCC)C(C)C
inactive: [13] 100 % of control | [14] 100 % of control | [15] 106 % of control | [16] 95 % of control | dose: 400.0 mg/kg/injection, schedule: Q01DX009 (ip), vehicle: saline with Tween-80 110 % of control | [17] 103 % of control

C=C(Br)CNC(=O)Nc1c2ccccc2nc2ccccc12
inactive: dose: 12.5 mg/kg/injection, schedule: Q01DX009 (ip), vehicle: Klucel (hydroxypropylcellulose) (HPC) 86 % of control | [18] 88 % of control | [9] 89 % of control | [10] 92 % of control | dose: 150.0 mg/kg/injection, schedule: Q01DX009 (ip), vehicle: Klucel (hydroxypropylcellulose) (HPC) 89 % of control | dose: 300.0 mg/kg/injection, schedule: Q01DX009 (ip), vehicle: Klucel (hydroxypropylcellulose) (HPC) 91 % of control

CCc1ccc(P(=O)(O)O)cc1
inactive: dose: 75.0 mg/kg/injection, schedule: Q01DX001 (ip), vehicle: saline 94 % of control | dose: 150.0 mg/kg/injection, schedule: Q01DX001 (ip), vehicle: saline 103 % of control | dose: 300.0 mg/kg/injection, schedule: Q01DX001 (ip), vehicle: saline 88 % of control

O=c1[nH]nnc2c1ncn2C1OC(CO)C(O)C1O (stereo not drawn)
inactive: dose: 100.0 mg/kg/injection, schedule: Q01DX005 (ip), vehicle: saline 102 % of control | dose: 200.0 mg/kg/injection, schedule: Q01DX005 (ip), vehicle: saline 102 % of control

CN(C)C(=S)Oc1ccc(Cl)cc1S(=O)(=O)F
inactive: [4] 106 % of control | [5] 101 % of control | [6] 102 % of control

Cc1cc2nc(SCC(=O)O)[nH]c2cc1C
inactive: dose: 100.0 mg/kg/injection, schedule: Q01DX009 (ip), vehicle: gum acacia 96 % of control | dose: 100.0 mg/kg/injection, schedule: Q04DX003 (ip), vehicle: gum acacia 99 % of control | dose: 200.0 mg/kg/injection, schedule: Q01DX009 (ip), vehicle: gum acacia 89 % of control | dose: 200.0 mg/kg/injection, schedule: Q04DX003 (ip), vehicle: gum acacia 103 % of control | dose: 400.0 mg/kg/injection, schedule: Q04DX003 (ip), vehicle: gum acacia 93 % of control

CC(=O)CC(=O)NCC(CCN1CCCCC1)(c1cccc2ccccc12)C(C)C (stereo not drawn)
inactive: [18] 106 % of control | [9] 95 % of control

CC(=O)OC1C=CCC23C(=O)C=CC(=O)C12C(=O)c1ccccc1C3=O (stereo not drawn)
inactive: dose: 0.25 mg/kg/injection, schedule: Q04DX003 (ip), vehicle: water 95 % of control | dose: 0.5 mg/kg/injection, schedule: Q04DX003 (ip), vehicle: water 100 % of control | dose: 1.0 mg/kg/injection, schedule: Q04DX003 (ip), vehicle: water 102 % of control | dose: 2.0 mg/kg/injection, schedule: Q04DX003 (ip), vehicle: water 97 % of control | dose: 4.0 mg/kg/injection, schedule: Q04DX003 (ip), vehicle: water 102 % of control | dose: 8.0 mg/kg/injection, schedule: Q04DX003 (ip), vehicle: water 100 % of control | dose: 16.0 mg/kg/injection, schedule: Q04DX003 (ip), vehicle: saline 102 % of control | dose: 16.0 mg/kg/injection, schedule: Q04DX003 (ip), vehicle: water 97 % of control | dose: 32.0 mg/kg/injection, schedule: Q04DX003 (ip), vehicle: saline 100 % of control | dose: 64.0 mg/kg/injection, schedule: Q04DX003 (ip), vehicle: saline 100 % of control

CCCNC(=O)c1ccc(NCc2cnc3nc(N)nc(N)c3n2)cc1
inactive: dose: 100.0 mg/kg/injection, schedule: Q01DX001 (ip), vehicle: Klucel (hydroxypropylcellulose) (HPC) 92 % of control | dose: 200.0 mg/kg/injection, schedule: Q01DX001 (ip), vehicle: Klucel (hydroxypropylcellulose) (HPC) 100 % of control | dose: 400.0 mg/kg/injection, schedule: Q01DX001 (ip), vehicle: Klucel (hydroxypropylcellulose) (HPC) 98 % of control

COc1ccc(CC2=NNC(Cc3ccc(OC)c(OC)c3)=NN2)cc1OC
inactive: [14] 91 % of control | [16] 91 % of control | [17] 93 % of control
